According to PMC3369139, “Preclinical evaluation of two ^68Ga-siderophores as potential radiopharmaceuticals for Aspergillus fumigatus infection imaging” (European Journal of Nuclear Medicine and Molecular Imaging, 2012):

What was measured:
[1] = Log P of ^68Ga-siderophores; format: physicochemical; settings: determined as described previously [20]
Experimental: (§1) TAFC and FOXE were labelled with ^68Ga using acetate buffer at room temperature for 15 min (TAFC) and at 80 °C for 20 min (FOXE). For all in vitro and in vivo studies, the pH of the final product was adjusted with 1.1 M sodium acetate to pH 6–7. The radiochemical purity, log P, protein binding and stability of ^68Ga-siderophores in various media were determined, as described previously.

A. fumigatus = experiment: Ex vivo biodistribution in rat A. fumigatus infection model, iron preload; parameters: species or system Lewis rats; settings: for Severe infection (%ID/g - lungs): iron preload model (10 mg/kg i.p. three times), severely infected rats; for Severe infection (%ID/g - lungs) / Mild infection (%ID/g - lungs) / Control (%ID/g - lungs): lungs 2 h after injection, n in cell; for Lung/blood ratio, control / Lung/blood ratio, mild infection / Lung/blood ratio, severe infection / Lung/kidneys ratio, control / Lung/kidneys ratio, mild infection / Lung/kidneys ratio, severe infection / Lung/liver ratio, control / Lung/liver ratio, mild infection / Lung/liver ratio, severe infection / Mild infection (%ID/g - lungs) / Control (%ID/g - lungs): iron preload model; for Lung/blood ratio, control / Lung/blood ratio, mild infection / Lung/blood ratio, severe infection / Lung/kidneys ratio, control / Lung/kidneys ratio, mild infection / Lung/kidneys ratio, severe infection / Lung/liver ratio, control / Lung/liver ratio, mild infection / Lung/liver ratio, severe infection: 2 h after injection; for Mild infection (%ID/g - lungs): mildly infected rats; for Control (%ID/g - lungs): rats showing no infection
Experimental: The A. fumigatus (A29) isolate was grown on Sabouraud dextrose agar (BD) for 5 days at 37 °C, and the conidia were harvested in 2 ml of sterile NaCl by gently rubbing with a pipette tip. The conidia suspension was transferred into a sterile 50 ml plastic tube. After homogenization (vortex) and filtration (40 μm nylon cell strainer; BD), the suspension was counted in a Neubauer chamber and adjusted to the volitional concentration in the range 1 × 10^5 to 1 × 10^9 conidia per millilitre.
Female or male Lewis rats (2–3 months old), weighing 200–250 g, were treated as described previously. Briefly, the rats received repeated intraperitoneal injections of cyclophosphamide to induce neutropenia before A. fumigatus administration. To prevent bacterial superinfection, the animals were given antibiotics throughout the experiment. Fungal infection was established by intratracheal administration of 100–300 μl of A. fumigatus inoculum in various concentrations (1 × 10^5 to 1 × 10^9 conidia per millilitre). Animals were injected intravenously 1–3 days (depending on the severity of infection) after A. fumigatus administration with ^68Ga-labelled siderophore (10–20 MBq and 1–2 μg of siderophore per rat). The rats were imaged or killed by overdosing with thiopental (Sandoz, Kundl, Austria) 2 h after injection. Various organs and tissues (blood, spleen, kidneys, liver and lungs) were removed and radioactivity was measured in a γ-counter. The excised organs were investigated for the presence of fungi, as described below.
Rats were treated as in the ‘standard’ infection model above, except that iron solution (FerMed; Medice, Iserlohn, Germany) 10 mg/kg was injected intraperitoneally three times (1 week, 4 days and 1 day) before A. fumigatus administration.
The excised organs were homogenized in a petri dish using a sterile surgical blade and transferred to Sabouraud dextrose agar (BD) plates. The plates were incubated at 37 °C and examined daily for 7 days. […] Severe infection was defined as the presence of severe fungal growth 1 day after incubation, mild infection was defined as the presence of minor growth up to 3 days after incubation, and no infection was defined as lack of growth within 1 week of incubation.

Stability in 0.1 M FeCl3 = format: physicochemical
Experimental: as §1

[2] = Metabolic stability in normal Balb/c mice (RP-HPLC of urine, blood, liver and kidney homogenates); format: in vivo; settings: 30 min p.i., % intact on RP-HPLC; for Stability in urine (%): γ-counter; for Stability in blood (%): acetonitrile precipitation
Experimental: Urine, blood, liver and kidneys of normal Balb/c mice injected with ^68Ga-siderophores and treated as described previously were collected 30 min after injection. The urine sample was directly injected onto the RP-HPLC column. Blood samples were precipitated with acetonitrile and centrifuged for 2 min, and the supernatant was injected onto the RP-HPLC column. Liver and kidneys were washed in the ice-cold TRIS buffer and liquidized using a mixer in a falcon tube containing 1 ml of TRIS buffer. The liver and kidney homogenates obtained were mixed with acetonitrile and centrifuged for 2 min, and the supernatant was injected onto the RP-HPLC column. In all cases 1 min fractions of the column eluate were collected and measured in a γ-counter. Samples were not collected at 90 min after injection because the measured activity was already low in the samples obtained 30 min after injection. All metabolic studies were performed using a previously described HPLC method.

[3] = Protein binding in human serum; format: in vitro ADME
Experimental: as §1

Structure (SMILES) | Log P [1] | Severe infection (%ID/g - lungs) (A. fumigatus) | Lung/blood ratio, control (A. fumigatus) | Lung/blood ratio, mild infection (A. fumigatus) | Lung/blood ratio, severe infection (A. fumigatus) | Lung/kidneys ratio, control (A. fumigatus) | Lung/kidneys ratio, mild infection (A. fumigatus) | Lung/kidneys ratio, severe infection (A. fumigatus) | Lung/liver ratio, control (A. fumigatus) | Lung/liver ratio, mild infection (A. fumigatus) | Lung/liver ratio, severe infection (A. fumigatus) | Mild infection (%ID/g - lungs) (A. fumigatus) | Control (%ID/g - lungs) (A. fumigatus) | Stability in 0.1-M FeCl3 (%) (Stability in 0.1 M FeCl3; incubation time 30 min) | Stability in 0.1-M FeCl3 (%) (Stability in 0.1 M FeCl3; incubation time 60 min) | Stability in 0.1-M FeCl3 (%) (Stability in 0.1 M FeCl3; incubation time 120 min) | Stability in kidney homogenate (%) [2] [%] | Stability in liver homogenate (%) [2] [%] | Stability in urine (%) [2] [%] | Stability in blood (%) [2] [%] | also measured
CC(=O)NC1CCCN([O-])C(=O)C=C(C)CCOC(=O)C(NC(C)=O)CCCN([O-])C(=O)C=C(C)CCOC(=O)C(NC(C)=O)CCCN([O-])C(=O)C=C(C)CCOC1=O.[68Ga+3] (stereo not shown) [^68Ga-TAFC, triacetylfusarinine C] | −2.59 | 0.64 (n=1) %ID/g | 0.99 (n=1) | 5.35 (n=2) | 1.41 (n=1) | 0.08 (n=1) | 0.31 (n=2) | 0.07 (n=1) | 0.76 (n=1) | 4.53 (n=2) | 3.49 (n=1) | 0.27 (n=2) %ID/g | 0.04 (n=1) %ID/g | 99.4 | 98.5 | 99.3 | 96.7 | 98.1 | 97.6 | 98.7 | Protein binding (%) ([3]; incubation time 30 min): 0.47%; Protein binding (%) ([3]; incubation time 60 min): 0.76%; Protein binding (%) ([3]; incubation time 120 min): 1.21%
O=C1CCC(=O)N([O-])CCCCCNC(=O)CCC(=O)N([O-])CCCCCNC(=O)CCC(=O)N([O-])CCCCCN1.[68Ga+3] [^68Ga-FOXE, ferrioxamine E] | −1.65 | 1.72 (n=1) %ID/g | 0.64 (n=2) | 0.81 (n=2) | 2.41 (n=1) | 0.06 (n=2) | 0.12 (n=2) | 0.11 (n=1) | 0.58 (n=2) | 1.17 (n=2) | 5.93 (n=1) | 0.14 (n=2) %ID/g | 0.04 (n=2) %ID/g | 92.9 | 91.8 | 94.5 | 97.6 | 71.3 | 95.9 | 97.7 | Protein binding (%) ([3]; incubation time 30 min): 0.27%; Protein binding (%) ([3]; incubation time 60 min): 0.24%; Protein binding (%) ([3]; incubation time 120 min): 0.53%
